# Experimental data taken from the supplement of paper PMC10307832.
# Experiments:
# Test in all cases: relative viability (nuclei count vs DMSO), 5 days (fraction); higher = more cells survive
# H3255 = system: H3255
# Procedure, shortened: (§1)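 Five library-drug doses in √10 steps were combined with a fixed anchor-drug dose, or a single drug was given alone, by pin tool to lung cancer cell lines in 1536-well plates the day after seeding. Nuclei were stained and counted after 5 days. Relative viability is the nuclei count in treated wells over that in vehicle wells, taken as the median of duplicate plates.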
# LU99A = system: LU99A
# Procedure, shortened: as §1
# NCI-H23 = system: NCI-H23
# Procedure, shortened: as §1
# NCI-H1563 = system: NCI-H1563
# Procedure, shortened: as §1
# SW 1573 = system: SW 1573
# Procedure, shortened: as §1
# PC-14 = system: PC-14
# Procedure, shortened: as §1
# LCLC-103H = system: LCLC-103H
# Procedure, shortened: as §1
# COR-L23 = system: COR-L23
# Procedure, shortened: as §1
# NCI-H2228 = system: NCI-H2228
# Procedure, shortened: as §1
# NCI-H1793 = system: NCI-H1793
# Procedure, shortened: as §1
# PC-3 [JPC-3] = system: PC-3 [JPC-3]
# Procedure, shortened: as §1
# NCI-H727 = system: NCI-H727
# Procedure, shortened: as §1
# SW 900 = system: SW 900
# Procedure, shortened: as §1
# LCLC-97TM1 = system: LCLC-97TM1
# Procedure, shortened: as §1
# LK-2 = system: LK-2
# Procedure, shortened: as §1
# NCI-H1650 = system: NCI-H1650
# Procedure, shortened: as §1
# NCI-H2347 = system: NCI-H2347
# Procedure, shortened: as §1
# A-427 = system: A-427
# Procedure, shortened: as §1
# 201T = system: 201T
# Procedure, shortened: as §1
# NCI-H596 = system: NCI-H596
# Procedure, shortened: as §1
# LC-2-ad = system: LC-2-ad
# Procedure, shortened: as §1
# NCI-H460 = system: NCI-H460
# Procedure, shortened: as §1
structure (smiles),measurement,setting,value
COc1nc(C)cnc1NS(=O)(=O)c1cccnc1-c1ccc(-c2nnco2)cc1 [Zibotentan] + COc1cc2c(Oc3ccc(NC(=O)C4(C(=O)Nc5ccc(F)cc5)CC4)cc3F)ccnc2cc1OCCCN1CCOCC1 [Foretinib] (partner 0.25 µM),relative viability,H3255; first compound 0.08 µM,0.966
same,relative viability,H3255; first compound 0.253 µM,0.802
same,relative viability,H3255; first compound 0.8 µM,0.945
same,relative viability,H3255; first compound 2.53 µM,0.987
same,relative viability,LU99A; first compound 0.08 µM,0.953
same,relative viability,LU99A; first compound 0.253 µM,0.8
same,relative viability,LU99A; first compound 0.8 µM,0.888
same,relative viability,LU99A; first compound 2.53 µM,0.918
same,relative viability,NCI-H23; first compound 0.08 µM,1.08
same,relative viability,NCI-H23; first compound 0.253 µM,0.766
same,relative viability,NCI-H23; first compound 0.8 µM,0.986
same,relative viability,NCI-H23; first compound 2.53 µM,1.17
same,relative viability,NCI-H1563; first compound 0.08 µM,0.985
same,relative viability,NCI-H1563; first compound 0.8 µM,1.02
same,relative viability,NCI-H1563; first compound 2.53 µM,0.979
same,relative viability,SW 1573; first compound 0.08 µM,0.966
same,relative viability,SW 1573; first compound 0.253 µM,0.692
same,relative viability,SW 1573; first compound 0.8 µM,0.983
same,relative viability,SW 1573; first compound 2.53 µM,0.82
same,relative viability,PC-14; first compound 0.08 µM,1.03
same,relative viability,PC-14; first compound 0.253 µM,0.897
same,relative viability,PC-14; first compound 0.8 µM,0.924
same,relative viability,PC-14; first compound 2.53 µM,1
same,relative viability,LCLC-103H; first compound 0.08 µM,0.928
same,relative viability,LCLC-103H; first compound 0.253 µM,0.886
same,relative viability,LCLC-103H; first compound 0.8 µM,0.797
same,relative viability,LCLC-103H; first compound 2.53 µM,0.838
same,relative viability,COR-L23; first compound 0.08 µM,1.21
same,relative viability,COR-L23; first compound 0.253 µM,0.926
same,relative viability,COR-L23; first compound 0.8 µM,0.989
same,relative viability,COR-L23; first compound 2.53 µM,0.894
same,relative viability,NCI-H2228; first compound 0.08 µM,0.714
same,relative viability,NCI-H2228; first compound 0.253 µM,0.819
same,relative viability,NCI-H2228; first compound 0.8 µM,0.889
same,relative viability,NCI-H2228; first compound 2.53 µM,0.801
same,relative viability,NCI-H1793; first compound 0.08 µM,0.993
same,relative viability,NCI-H1793; first compound 0.253 µM,0.721
same,relative viability,NCI-H1793; first compound 0.8 µM,0.546
same,relative viability,NCI-H1793; first compound 2.53 µM,0.808
same,relative viability,PC-3 [JPC-3]; first compound 0.08 µM,1.05
same,relative viability,PC-3 [JPC-3]; first compound 0.253 µM,1.05
same,relative viability,PC-3 [JPC-3]; first compound 0.8 µM,1.03
same,relative viability,PC-3 [JPC-3]; first compound 2.53 µM,0.973
same,relative viability,NCI-H727; first compound 0.08 µM,1.07
same,relative viability,NCI-H727; first compound 0.253 µM,0.862
same,relative viability,NCI-H727; first compound 0.8 µM,0.893
same,relative viability,NCI-H727; first compound 2.53 µM,0.811
same,relative viability,SW 900; first compound 0.08 µM,0.997
same,relative viability,SW 900; first compound 0.253 µM,0.811
same,relative viability,SW 900; first compound 0.8 µM,0.887
same,relative viability,SW 900; first compound 2.53 µM,0.857
same,relative viability,LCLC-97TM1; first compound 0.08 µM,1.01
same,relative viability,LCLC-97TM1; first compound 0.253 µM,0.891
same,relative viability,LCLC-97TM1; first compound 0.8 µM,1
same,relative viability,LCLC-97TM1; first compound 2.53 µM,0.926
same,relative viability,LK-2; first compound 0.08 µM,1.37
same,relative viability,LK-2; first compound 0.253 µM,1.31
same,relative viability,LK-2; first compound 0.8 µM,0.895
same,relative viability,LK-2; first compound 2.53 µM,1.17
same,relative viability,NCI-H1650; first compound 0.08 µM,1.04
same,relative viability,NCI-H1650; first compound 0.8 µM,1.29
same,relative viability,NCI-H1650; first compound 2.53 µM,1.28
same,relative viability,NCI-H2347; first compound 0.08 µM,0.995
same,relative viability,NCI-H2347; first compound 0.253 µM,0.896
same,relative viability,NCI-H2347; first compound 0.8 µM,0.947
same,relative viability,NCI-H2347; first compound 2.53 µM,0.655
same,relative viability,A-427; first compound 0.08 µM,1.14
same,relative viability,A-427; first compound 0.253 µM,1.1
same,relative viability,A-427; first compound 0.8 µM,1.1
same,relative viability,A-427; first compound 2.53 µM,1.19
same,relative viability,201T; first compound 0.08 µM,1.16
same,relative viability,201T; first compound 0.253 µM,0.956
same,relative viability,201T; first compound 0.8 µM,1.04
same,relative viability,201T; first compound 2.53 µM,1.15
same,relative viability,NCI-H596; first compound 0.08 µM,0.899
same,relative viability,NCI-H596; first compound 0.253 µM,0.794
same,relative viability,NCI-H596; first compound 0.8 µM,0.768
same,relative viability,NCI-H596; first compound 2.53 µM,0.914
same,relative viability,LC-2-ad; first compound 0.08 µM,1.02
same,relative viability,LC-2-ad; first compound 0.8 µM,0.955
same,relative viability,LC-2-ad; first compound 2.53 µM,0.954
same,relative viability,NCI-H460; first compound 0.08 µM,1.09
same,relative viability,NCI-H460; first compound 0.253 µM,0.827
same,relative viability,NCI-H460; first compound 0.8 µM,0.986
same,relative viability,NCI-H460; first compound 2.53 µM,1.05
COc1nc(C)cnc1NS(=O)(=O)c1cccnc1-c1ccc(-c2nnco2)cc1 [Zibotentan] + Cc1nc(Nc2ncc(C(=O)Nc3c(C)cccc3Cl)s2)cc(N2CCN(CCO)CC2)n1 [Dasatinib] (partner 0.075 µM),relative viability,H3255; first compound 0.08 µM,0.406
same,relative viability,H3255; first compound 0.253 µM,0.311
same,relative viability,H3255; first compound 0.8 µM,0.632
same,relative viability,H3255; first compound 2.53 µM,0.325
same,relative viability,LU99A; first compound 0.08 µM,0.712
same,relative viability,LU99A; first compound 0.253 µM,0.694
same,relative viability,LU99A; first compound 0.8 µM,0.596
same,relative viability,LU99A; first compound 2.53 µM,0.487
same,relative viability,NCI-H23; first compound 0.08 µM,0.859
same,relative viability,NCI-H23; first compound 0.253 µM,0.711
same,relative viability,NCI-H23; first compound 0.8 µM,0.553
same,relative viability,NCI-H23; first compound 2.53 µM,0.928
same,relative viability,NCI-H1563; first compound 0.08 µM,0.493
same,relative viability,NCI-H1563; first compound 0.253 µM,0.435
same,relative viability,NCI-H1563; first compound 0.8 µM,0.476
same,relative viability,NCI-H1563; first compound 2.53 µM,0.397
same,relative viability,SW 1573; first compound 0.08 µM,0.565
same,relative viability,SW 1573; first compound 0.8 µM,0.537
same,relative viability,SW 1573; first compound 2.53 µM,0.556
same,relative viability,PC-14; first compound 0.08 µM,0.26
same,relative viability,PC-14; first compound 0.253 µM,0.172
same,relative viability,PC-14; first compound 0.8 µM,0.243
same,relative viability,PC-14; first compound 2.53 µM,0.277
same,relative viability,LCLC-103H; first compound 0.08 µM,0.47
same,relative viability,LCLC-103H; first compound 0.253 µM,0.562
same,relative viability,LCLC-103H; first compound 0.8 µM,0.451
same,relative viability,LCLC-103H; first compound 2.53 µM,0.531
same,relative viability,COR-L23; first compound 0.08 µM,0.502
same,relative viability,COR-L23; first compound 0.253 µM,0.485
same,relative viability,COR-L23; first compound 0.8 µM,0.488
same,relative viability,COR-L23; first compound 2.53 µM,0.5
same,relative viability,NCI-H2228; first compound 0.08 µM,0.554
same,relative viability,NCI-H2228; first compound 0.253 µM,0.509
same,relative viability,NCI-H2228; first compound 0.8 µM,0.495
same,relative viability,NCI-H2228; first compound 2.53 µM,0.608
same,relative viability,NCI-H1793; first compound 0.08 µM,0.345
same,relative viability,NCI-H1793; first compound 0.253 µM,0.363
same,relative viability,NCI-H1793; first compound 0.8 µM,0.406
same,relative viability,NCI-H1793; first compound 2.53 µM,0.379
same,relative viability,PC-3 [JPC-3]; first compound 0.08 µM,0.989
same,relative viability,PC-3 [JPC-3]; first compound 0.253 µM,1.02
same,relative viability,PC-3 [JPC-3]; first compound 0.8 µM,1.01
same,relative viability,PC-3 [JPC-3]; first compound 2.53 µM,1.12
same,relative viability,NCI-H727; first compound 0.08 µM,0.333
same,relative viability,NCI-H727; first compound 0.253 µM,0.251
same,relative viability,NCI-H727; first compound 0.8 µM,0.279
same,relative viability,NCI-H727; first compound 2.53 µM,0.372
same,relative viability,SW 900; first compound 0.08 µM,0.633
same,relative viability,SW 900; first compound 0.253 µM,0.59
same,relative viability,SW 900; first compound 0.8 µM,0.562
same,relative viability,SW 900; first compound 2.53 µM,0.911
same,relative viability,LCLC-97TM1; first compound 0.08 µM,0.823
same,relative viability,LCLC-97TM1; first compound 0.253 µM,0.841
same,relative viability,LCLC-97TM1; first compound 0.8 µM,0.882
same,relative viability,LCLC-97TM1; first compound 2.53 µM,0.861
same,relative viability,LK-2; first compound 0.08 µM,0.293
same,relative viability,LK-2; first compound 0.253 µM,0.221
same,relative viability,LK-2; first compound 0.8 µM,0.275
same,relative viability,LK-2; first compound 2.53 µM,0.318
same,relative viability,NCI-H1650; first compound 0.08 µM,0.35
same,relative viability,NCI-H1650; first compound 0.8 µM,0.27
same,relative viability,NCI-H1650; first compound 2.53 µM,0.4
same,relative viability,NCI-H2347; first compound 0.253 µM,0.294
same,relative viability,NCI-H2347; first compound 0.8 µM,0.298
same,relative viability,NCI-H2347; first compound 2.53 µM,0.331
same,relative viability,A-427; first compound 0.08 µM,0.908
same,relative viability,A-427; first compound 0.253 µM,0.69
same,relative viability,A-427; first compound 0.8 µM,0.7
same,relative viability,A-427; first compound 2.53 µM,0.828
same,relative viability,201T; first compound 0.08 µM,0.676
same,relative viability,201T; first compound 0.253 µM,0.569
same,relative viability,201T; first compound 0.8 µM,0.576
same,relative viability,201T; first compound 2.53 µM,0.624
same,relative viability,NCI-H596; first compound 0.08 µM,0.68
same,relative viability,NCI-H596; first compound 0.253 µM,0.549
same,relative viability,NCI-H596; first compound 0.8 µM,0.538
same,relative viability,NCI-H596; first compound 2.53 µM,0.561
same,relative viability,LC-2-ad; first compound 0.08 µM,0.688
same,relative viability,LC-2-ad; first compound 0.8 µM,0.625
same,relative viability,LC-2-ad; first compound 2.53 µM,0.511
same,relative viability,NCI-H460; first compound 0.08 µM,0.559
same,relative viability,NCI-H460; first compound 0.253 µM,0.391
same,relative viability,NCI-H460; first compound 0.8 µM,0.504
same,relative viability,NCI-H460; first compound 2.53 µM,0.602
